Results as given in US11098095B1, “Methods of inhibiting MMP-9” (DASMAN DIABETES INSTITUTE, priority 2020, dated 2021).

Tests used:
Type in all cases: cell-based
[1] = system: MMP-9 mRNA expression in monocytes (THP-1 cells) and macrophages; experiment: MMP-9 mRNA expression by real-time PCR (RT-PCR); conditions: stimulated 24 hr, FIGS. 1A and 1B
Protocol: (§1) Monocytes (THP-1 cells and macrophages were cultured in 12-well plates (Costar, Corning Incorporated, Corning, N.Y., USA) at a cell density of 1/10^6 cells/well. Cells were pre-incubated with gp130 inhibitor (SC-144, 1.5 μM) or JAK2 inhibitor (AG-490, 30 μM) for 1 hour and then stimulated with IL-6 or TNF-α or IL-6/TNF-α for 24 hr at 37° C. (with humidity) in 5% CO2. Control cells were incubated with culture media only. Culture media and cells were harvested and MMP9 mRNA and protein expression levels were assessed by real-time PCR (RT-PCR) and ELISA.
Total RNA was extracted using RNeasy Mini Kit (Qiagen, Valencia, Calif.; USA). […] For RT-PCR, cDNA template (50 ng) was amplified using inventoried TaqMan Gene Expression Assay products (MMP-9; Hs00234579_m1; GAPDH; Bs0392909_g1; containing two gene-specific printers and one TaqMan MGB probe (6-FAM dye-labeled) with a TaqMan Gene Expression Master Mix (Applied Biosystems, Foster City, Calif., USA) and a 7500 Fast Real-Time PCR System (Applied Biosystems, Foster City, Calif., USA). The mRNA levels were normalized against GAPDH mRNA and MMP-9 mRNA expression relative to control was calculated using the 2^−ΔΔCt-method. Relative mRNA expression is shown as told expression over average of control gene expression. […] The results were analyzed statistically and P<0.05 was considered significant.

[2] = system: MMP-9 proteolytic activity in conditioned media of THP-1 cells; experiment: MMP9 proteolytic activity measured using gelatin zymography; conditions: monocytes (THP-1), 24 hours incubation
Protocol: THP-1 cells were incubated with TNF-α and IL-6. After incubation for 24 hours, conditioned media were collected and mixed with Zymogram sample buffer (BioRad; 62.5 mM Tris-HCl, pH.6.8, 25% glycerol, 4% SDS and 0.01% bromophenol blue) and then loaded on to a 10% polyacrylamide gel with gelatin (10% Ready Gel Zymogram Gel, BioRad) for electrophoresis. The gel was incubated with renaturing buffer BioRad (2.5% Triton X-100) for 1 hour at room temperature and Incubated with zonogram developing buffer.

[3] = system: MMP-9 protein secretion by monocytes (THP-1 cells) and macrophages; experiment: MMP-9 secreted protein in culture supernatants by sandwich ELISA; conditions: for MMP-9 protein secretion levels: monocytes and macrophages, stimulated 24 hr, FIGS. 2A-2B; for cross-talk effect of IL-6 and TNF-α stimulation on the secretion of MMP-9 by monocytes: then IL-6/TNF-α for 24 hr; for crosstalk effect of IL-6 on TNF-α's enhancement of MMP-9 expression and secretion: summary statement, concentration not given
Protocol: as §1, with “ELISA. MMP-9 secreted protein in the supernatants of monocytes and macrophages stimulated with IL-6, TNF-α, or IL-6 and TNF-α was quantified using sandwich ELISA following the manufacturers instructions (SMP900, R&D systems, Minneapolis, USA). As illustrated in FIGS. 2A-2B. […] As illustrated in FIGS. 3A-3B, this robust cross-talk effect of IL-6 and TNF-α stimulation on the secretion of MMP-9 by monocytes may be extinguished by administration of either a JAK2 inhibitor AG-490, See FIG. 3A) or a gp130 inhibitor (SC-144, See FIG. 3B).” for “ELISA.”

Compound	MMP-9 mRNA expression relative to control [1]	MMP-9 proteolytic activity [2]	MMP-9 protein secretion levels [3]	cross-talk effect of IL-6 and TNF-α stimulation on the secretion of MMP-9 by monocytes ([3]; AG-490 30 μM pre-incubated 1 hour, FIG. 3A)	crosstalk effect of IL-6 on TNF-α's enhancement of MMP-9 expression and secretion [3]	cross-talk effect of IL-6 and TNF-α stimulation on the secretion of MMP-9 by monocytes ([3]; SC-144 1.5 μM pre-incubated 1 hour, FIG. 3B)
tumor necrosis factor alpha [TNF-α]	increase	lesser	increased			
interleukin-6 [IL-6]		minimal	minimally effected			
N#C/C(=C\c1ccc(O)c(O)c1)C(=O)NCc1ccccc1 [AG490]				extinguished	suppress	
O=C(NNc1nc2cc(F)ccc2n2cccc12)c1cnccn1 [SC-144]					suppress	extinguished
